Measurements: PubChem BioAssay (NCI)
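Five concentrations, 48 hours, 96-well plates. TGI: total growth inhibition.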

Key:
Test in all cases: NCI-60 cell line screen, 48 h
UACC-257 melanoma = system: UACC-257 melanoma
RPMI-8226 leukemia = system: RPMI-8226 leukemia
OVCAR-4 ovarian = system: OVCAR-4 ovarian
KM12 colon = system: KM12 colon
SF-295 CNS = system: SF-295 CNS
HCC-2998 colon = system: HCC-2998 colon
NCI-H23 lung = system: NCI-H23 lung
SF-539 CNS = system: SF-539 CNS
SK-MEL-5 melanoma = system: SK-MEL-5 melanoma
MCF7 breast = system: MCF7 breast
OVCAR-8 ovarian = system: OVCAR-8 ovarian
MDA-MB-435 = system: MDA-MB-435
SNB-75 CNS = system: SNB-75 CNS
SNB-19 CNS = system: SNB-19 CNS
HOP-62 NSCLC = system: HOP-62 NSCLC
LOX IMVI melanoma = system: LOX IMVI melanoma
CCRF-CEM leukemia = system: CCRF-CEM leukemia
UACC-62 melanoma = system: UACC-62 melanoma
M14 melanoma = system: M14 melanoma
MALME-3M melanoma = system: MALME-3M melanoma
NCI/ADR-RES ovarian = system: NCI/ADR-RES ovarian
IGROV1 ovarian = system: IGROV1 ovarian
SK-OV-3 ovarian = system: SK-OV-3 ovarian
MDA-N = system: MDA-N
NCI-H226 lung = system: NCI-H226 lung
HCT-15 colon = system: HCT-15 colon
OVCAR-3 ovarian = system: OVCAR-3 ovarian
MOLT-4 leukemia = system: MOLT-4 leukemia
U251 CNS = system: U251 CNS
A498 renal = system: A498 renal
CAKI-1 renal = system: CAKI-1 renal
SK-MEL-2 melanoma = system: SK-MEL-2 melanoma
COLO 205 colon = system: COLO 205 colon
K-562 leukemia = system: K-562 leukemia
UO-31 renal = system: UO-31 renal
ACHN renal = system: ACHN renal
786-0 renal = system: 786-0 renal
DU-145 prostate = system: DU-145 prostate
HCT-116 colon = system: HCT-116 colon
NCI-H522 lung = system: NCI-H522 lung
TK-10 renal = system: TK-10 renal
HOP-92 NSCLC = system: HOP-92 NSCLC
OVCAR-5 ovarian = system: OVCAR-5 ovarian
MDA-MB-231 breast = system: MDA-MB-231 breast
SK-MEL-28 melanoma = system: SK-MEL-28 melanoma
A549 NSCLC = system: A549 NSCLC
SN12C renal = system: SN12C renal
HT29 colon = system: HT29 colon
EKVX NSCLC = system: EKVX NSCLC
SF-268 CNS = system: SF-268 CNS
SW-620 colon = system: SW-620 colon
PC-3 prostate = system: PC-3 prostate

## C=C(C)C(=O)[C@@]12C(=O)[C@@H](C)CC[C@H]1[C@H](C)C[C@@H]2C=C(C)C
UACC-257 melanoma
  TGI: 33.5 µM
RPMI-8226 leukemia
  TGI: > 100 µM
OVCAR-4 ovarian
  TGI: > 100 µM
KM12 colon
  TGI: 56.4 µM
SF-295 CNS
  TGI: > 100 µM
HCC-2998 colon
  TGI: 28 µM
NCI-H23 lung
  TGI: 36.3 µM
SF-539 CNS
  TGI: 47.4 µM
SK-MEL-5 melanoma
  TGI: 45.1 µM
MCF7 breast
  TGI: 52.3 µM
OVCAR-8 ovarian
  TGI: > 100 µM
MDA-MB-435
  TGI: 54.3 µM
SNB-75 CNS
  TGI: > 100 µM
SNB-19 CNS
  TGI: 32.5 µM
HOP-62 NSCLC
  TGI: > 100 µM
LOX IMVI melanoma
  TGI: 37 µM
CCRF-CEM leukemia
  TGI: > 100 µM
UACC-62 melanoma
  TGI: > 100 µM
M14 melanoma
  TGI: > 100 µM
MALME-3M melanoma
  TGI: 40.6 µM
NCI/ADR-RES ovarian
  TGI: 83.5 µM
IGROV1 ovarian
  TGI: 64.5 µM
SK-OV-3 ovarian
  TGI: > 100 µM
MDA-N
  TGI: 59.1 µM
NCI-H226 lung
  TGI: > 100 µM
HCT-15 colon
  TGI: 73.5 µM
OVCAR-3 ovarian
  TGI: 38.5 µM
MOLT-4 leukemia
  TGI: 65.7 µM
U251 CNS
  TGI: 49.6 µM
A498 renal
  TGI: > 100 µM
CAKI-1 renal
  TGI: 99.5 µM
SK-MEL-2 melanoma
  TGI: 26.7 µM
COLO 205 colon
  TGI: 41.5 µM
K-562 leukemia
  TGI: > 100 µM
UO-31 renal
  TGI: 43 µM
ACHN renal
  TGI: 25.6 µM
786-0 renal
  TGI: 42.4 µM
DU-145 prostate
  TGI: > 100 µM
HCT-116 colon
  TGI: 42.6 µM
NCI-H522 lung
  TGI: 27.7 µM
TK-10 renal
  TGI: > 100 µM
HOP-92 NSCLC
  TGI: > 100 µM
OVCAR-5 ovarian
  TGI: 55.2 µM
MDA-MB-231 breast
  TGI: 51.3 µM
SK-MEL-28 melanoma
  TGI: > 100 µM
A549 NSCLC
  TGI: > 100 µM
SN12C renal
  TGI: 40.7 µM
HT29 colon
  TGI: 34.8 µM
EKVX NSCLC
  TGI: 93.1 µM
SF-268 CNS
  TGI: 36 µM
SW-620 colon
  TGI: 44 µM
PC-3 prostate
  TGI: 59.4 µM
